Laboratory results published in patent publication US20040039053A1, “Use of(-) (3-halomethylphenoxy) (4-halophenyl) acetic acid derivatives for treatment of insulin resistance, type 2 diabetes, hyperlipidemia and hyperuricemia” (priority 2000, published 2004).
Values joined by “and” are separate entries in the source; they are usually repeats but may differ in a detail not shown here. Equal values may be shown once. Read-outs that look alike come from different tables or passages of the source.

Tests used:
[1] = molecular target: T1, CYP2A6 (Homo sapiens, UniProt P11509); test: in vitro; conditions: both, microsomes
T1 sequence (P11509 1-494): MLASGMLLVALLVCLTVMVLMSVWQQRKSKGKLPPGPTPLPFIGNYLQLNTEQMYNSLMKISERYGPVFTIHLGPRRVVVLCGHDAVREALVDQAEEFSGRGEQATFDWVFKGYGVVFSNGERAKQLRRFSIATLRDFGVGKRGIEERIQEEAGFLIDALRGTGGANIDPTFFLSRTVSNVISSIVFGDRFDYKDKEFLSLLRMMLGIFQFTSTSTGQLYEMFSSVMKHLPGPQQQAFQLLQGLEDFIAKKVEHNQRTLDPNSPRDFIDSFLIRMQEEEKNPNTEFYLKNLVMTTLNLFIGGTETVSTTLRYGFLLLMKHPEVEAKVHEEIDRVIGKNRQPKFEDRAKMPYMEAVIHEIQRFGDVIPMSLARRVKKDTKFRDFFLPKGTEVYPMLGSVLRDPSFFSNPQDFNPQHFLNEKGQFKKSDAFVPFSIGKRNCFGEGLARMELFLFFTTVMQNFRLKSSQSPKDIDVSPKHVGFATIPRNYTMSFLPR

[2] = molecular target: T2, CYP2E1 (Homo sapiens, UniProt P05181); test: Cytochrome P450 isoform inhibition in human hepatic microsomes, chlorzoxazone (Example 18); conditions: 0.33 to 33.3 μM
[3] = molecular target: T3, CYP2C9 (Homo sapiens, UniProt P11712); test: in vitro; conditions: both, microsomes
[4] = molecular target: CYP2D6 (Homo sapiens, UniProt P10635); test: in vitro; conditions: both, microsomes
[5] = molecular target: T4, CYP1A2 (Homo sapiens, UniProt P05177); conditions: both, 30 min
T4 sequence (P05177 1-516): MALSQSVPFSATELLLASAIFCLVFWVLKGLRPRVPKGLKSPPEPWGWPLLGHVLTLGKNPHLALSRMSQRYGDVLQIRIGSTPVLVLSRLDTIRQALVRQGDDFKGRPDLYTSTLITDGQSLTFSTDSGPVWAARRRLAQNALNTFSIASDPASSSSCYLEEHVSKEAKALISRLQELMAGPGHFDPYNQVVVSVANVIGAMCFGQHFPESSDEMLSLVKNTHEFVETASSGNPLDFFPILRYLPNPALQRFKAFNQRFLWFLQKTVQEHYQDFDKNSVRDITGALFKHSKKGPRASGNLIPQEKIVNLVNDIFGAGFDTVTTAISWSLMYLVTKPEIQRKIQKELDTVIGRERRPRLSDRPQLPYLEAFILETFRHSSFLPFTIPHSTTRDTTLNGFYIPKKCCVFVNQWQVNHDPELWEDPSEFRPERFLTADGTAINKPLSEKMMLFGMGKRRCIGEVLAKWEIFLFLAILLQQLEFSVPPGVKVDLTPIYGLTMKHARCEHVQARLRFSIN

[6] = molecular target: T5, CYP3A4 (Homo sapiens, UniProt P08684); test: in vitro; conditions: both, microsomes
[7] = molecular target: T3, CYP2C9; conditions: for Tolbutamide 4-OH TB Production: both, human, 40 min
[8] = molecular target: T5, CYP3A4; conditions: both, 10 min
[9] = molecular target: T2, CYP2E1; test: in vitro; conditions: both, microsomes
[10] = molecular target: T2, CYP2E1; conditions: both, 20 min
[11] = molecular target: CYP2C19 (Homo sapiens, UniProt P33261); test: Cytochrome P450 isoform inhibition in human hepatic microsomes, S-mephenytoin (Example 18); type: in vitro ADME
[12] = Pharmacokinetic study in SD rats, chiral HPLC of plasma halofenic acids (Example 14); type: in vivo; conditions: single oral dose of (−) halofenate 50 mg/kg
Experimental: Male 225-250 g SD rats were purchased from Charles River. […] A catheter was placed in the left carotid artery under sodium pentobarbital (50 mg/kg i.p.) and animals were allowed to recover for 2 days before treatment. […] The gavage volume was 5 ml/kg. Blood samples were collected at 1, 2, 4, 6, 8, 12, 24, 48, 72, 96 and 120 hours post dose. The plasma samples were analyzed for each enantiomeric acid ((−) halofenic acid and (+) halofenic acid) by a chiral specific HPLC assay, since the esters are prodrugs, which are designed to convert to their respective enantiomeric acids in vivo.

Sequence of CYP2D6 (P10635 whole entry): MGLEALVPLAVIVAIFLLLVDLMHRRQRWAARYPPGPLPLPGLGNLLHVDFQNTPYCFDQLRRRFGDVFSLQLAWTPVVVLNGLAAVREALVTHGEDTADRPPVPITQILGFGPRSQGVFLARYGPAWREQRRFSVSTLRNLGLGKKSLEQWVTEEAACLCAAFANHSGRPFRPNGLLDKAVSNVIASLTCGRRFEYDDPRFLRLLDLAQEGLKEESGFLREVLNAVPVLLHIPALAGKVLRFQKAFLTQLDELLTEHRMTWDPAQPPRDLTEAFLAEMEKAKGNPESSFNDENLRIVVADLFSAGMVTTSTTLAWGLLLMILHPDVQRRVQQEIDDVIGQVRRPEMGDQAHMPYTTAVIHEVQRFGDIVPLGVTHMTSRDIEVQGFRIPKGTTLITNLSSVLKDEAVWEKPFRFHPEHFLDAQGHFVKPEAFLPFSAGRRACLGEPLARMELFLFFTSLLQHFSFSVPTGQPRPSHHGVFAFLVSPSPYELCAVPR
T2 sequence (P05181 whole entry, canonical isoform): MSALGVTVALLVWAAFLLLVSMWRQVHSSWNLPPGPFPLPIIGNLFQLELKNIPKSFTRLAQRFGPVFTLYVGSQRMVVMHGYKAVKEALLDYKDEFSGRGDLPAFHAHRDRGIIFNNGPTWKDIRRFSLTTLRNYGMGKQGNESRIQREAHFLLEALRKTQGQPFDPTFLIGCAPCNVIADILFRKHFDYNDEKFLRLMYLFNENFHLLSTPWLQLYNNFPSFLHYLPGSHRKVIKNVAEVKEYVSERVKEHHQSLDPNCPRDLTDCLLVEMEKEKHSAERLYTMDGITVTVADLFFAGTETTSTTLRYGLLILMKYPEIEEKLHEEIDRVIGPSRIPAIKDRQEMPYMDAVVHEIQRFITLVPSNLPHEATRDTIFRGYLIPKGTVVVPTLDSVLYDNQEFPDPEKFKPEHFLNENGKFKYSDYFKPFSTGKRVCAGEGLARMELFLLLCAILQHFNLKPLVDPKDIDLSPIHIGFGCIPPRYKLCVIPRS
Sequence of CYP2C19 (P33261 whole entry, canonical isoform): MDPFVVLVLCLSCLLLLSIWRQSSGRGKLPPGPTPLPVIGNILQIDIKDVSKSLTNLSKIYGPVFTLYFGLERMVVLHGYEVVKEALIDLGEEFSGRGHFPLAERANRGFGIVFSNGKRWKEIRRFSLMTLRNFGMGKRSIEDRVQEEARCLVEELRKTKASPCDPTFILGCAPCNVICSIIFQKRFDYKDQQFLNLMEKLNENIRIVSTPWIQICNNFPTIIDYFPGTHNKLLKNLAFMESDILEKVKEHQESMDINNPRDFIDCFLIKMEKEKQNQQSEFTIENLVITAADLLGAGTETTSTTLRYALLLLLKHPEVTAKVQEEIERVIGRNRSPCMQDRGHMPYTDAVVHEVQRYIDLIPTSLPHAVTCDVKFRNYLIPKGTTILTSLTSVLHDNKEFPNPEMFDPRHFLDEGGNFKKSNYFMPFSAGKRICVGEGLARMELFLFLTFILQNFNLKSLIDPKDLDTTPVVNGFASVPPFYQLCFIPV
T5 sequence (P08684 whole entry): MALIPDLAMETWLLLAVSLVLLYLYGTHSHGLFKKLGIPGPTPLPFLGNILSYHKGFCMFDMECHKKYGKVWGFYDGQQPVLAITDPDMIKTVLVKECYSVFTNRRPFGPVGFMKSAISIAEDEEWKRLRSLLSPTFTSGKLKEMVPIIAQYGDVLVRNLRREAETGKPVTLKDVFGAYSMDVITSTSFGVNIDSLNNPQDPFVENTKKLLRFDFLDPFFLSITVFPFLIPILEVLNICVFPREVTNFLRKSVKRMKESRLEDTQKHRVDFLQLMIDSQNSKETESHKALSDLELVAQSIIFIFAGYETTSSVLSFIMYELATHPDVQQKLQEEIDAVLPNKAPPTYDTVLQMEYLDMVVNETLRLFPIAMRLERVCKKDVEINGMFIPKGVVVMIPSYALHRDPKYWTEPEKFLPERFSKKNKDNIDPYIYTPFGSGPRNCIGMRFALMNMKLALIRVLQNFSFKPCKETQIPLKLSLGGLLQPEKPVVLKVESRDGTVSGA
T3 sequence (P11712 whole entry): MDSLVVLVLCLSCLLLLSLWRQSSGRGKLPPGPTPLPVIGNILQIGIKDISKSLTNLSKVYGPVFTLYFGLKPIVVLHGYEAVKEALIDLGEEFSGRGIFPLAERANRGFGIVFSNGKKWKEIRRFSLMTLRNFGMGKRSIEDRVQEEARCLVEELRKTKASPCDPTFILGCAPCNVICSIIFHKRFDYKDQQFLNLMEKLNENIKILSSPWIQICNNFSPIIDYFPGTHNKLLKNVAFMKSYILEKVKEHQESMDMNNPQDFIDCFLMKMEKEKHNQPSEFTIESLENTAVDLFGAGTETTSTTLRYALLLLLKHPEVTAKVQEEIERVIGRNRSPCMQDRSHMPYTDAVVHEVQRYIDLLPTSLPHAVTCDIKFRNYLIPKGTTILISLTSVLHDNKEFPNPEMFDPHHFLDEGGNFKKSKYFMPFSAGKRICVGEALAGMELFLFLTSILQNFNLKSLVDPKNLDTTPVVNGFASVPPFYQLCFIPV

Q: Which inhibition at 20 min, 0.33 μM [1] does the source give for `O=C(O)C(Oc1cccc(C(F)(F)F)c1)c1ccc(Cl)cc1` (single isomer, unassigned; (-)) [(−) halofenic acid, (−) 4-chlorophenyl-(3-trifluoromethylphenoxy)-acetic acid] here?
A: -4%

Q: And the inhibition at 20 min, 1 μM [1]?
A: -2%

Q: And the inhibition at 20 min, 3.3 μM [1]?
A: 0%

Q: And the inhibition at 20 min, 10 μM [1]?
A: -3%

Q: What about the inhibition at 20 min, 33.3 μM [1] of the same compound?
A: -1%

Q: What about the “inhibition of CYP2E1, in words” value [2] of the same compound?
A: not observed

Q: What about the inhibition at 40 min, 0.33 μM [3] of the same compound?
A: 5%

Q: And the inhibition at 40 min, 1 μM [3]?
A: 10%

Q: And the inhibition at 40 min, 3.3 μM [3]?
A: 21%

Q: What about the inhibition at 40 min, 10 μM [3] of the same compound?
A: 47%

Q: What about the inhibition at 40 min, 33.3 μM [3] of the same compound?
A: 71%

Q: And the inhibition at 15 min, 0.33 μM [4]?
A: 3%

Q: What about the inhibition at 15 min, 1 μM [4] of the same compound?
A: 1%

Q: And the inhibition at 15 min, 3.3 µM [4]?
A: 6%

Q: What about the inhibition at 15 min, 10 µM [4] of the same compound?
A: 4%

Q: And the inhibition at 15 min, 33.3 µM [4]?
A: 5%

Q: What about the “Phenacetin AC Production” value ([5]; 0.33 μM) of the same compound?
A: 116 ± 2 pmol/mg protein/min

Q: What about the “Phenacetin AC Production” value ([5]; 1 μM) of the same compound?
A: 118 ± 2 pmol/mg protein/min

Q: What about the “Phenacetin AC Production” value ([5]; 3.3 μM) of the same compound?
A: 119 ± 2 pmol/mg protein/min

Q: What about the “Phenacetin AC Production” value ([5]; 10 μM) of the same compound?
A: 119 ± 2 pmol/mg protein/min

Q: And the “Phenacetin AC Production” value ([5]; 33.3 μM)?
A: 119 ± 2 pmol/mg protein/min

Q: And the inhibition at 10 min, 0.33 µM [6]?
A: 1.5%

Q: What about the inhibition at 10 min, 1 µM [6] of the same compound?
A: 0%

Q: What about the inhibition at 10 min, 3.3 µM [6] of the same compound?
A: 1.8%

Q: And the inhibition at 10 min, 10 µM [6]?
A: 1.3%

Q: What about the inhibition at 10 min, 33.3 µM [6] of the same compound?
A: 1.5%

Q: What about the “IC50 for CYP2C9 in Example 18 relative to that reported in Example 7” value [7] of the same compound?
A: approximately three times

Q: And the “Tolbutamide 4-OH TB Production” value ([7]; 0.33 μM)?
A: 41.0 ± 0.9 pmol/mg protein/min

Q: What about the “Tolbutamide 4-OH TB Production” value ([7]; 1 μM) of the same compound?
A: 38.6 ± 0.5 pmol/mg protein/min

Q: And the “Tolbutamide 4-OH TB Production” value ([7]; 3.3 μM)?
A: 34.2 ± 0.2 pmol/mg protein/min

Q: And the “Tolbutamide 4-OH TB Production” value ([7]; 10 μM)?
A: 22.7 ± 0.6 pmol/mg protein/min

Q: What about the “Tolbutamide 4-OH TB Production” value ([7]; 33.3 μM) of the same compound?
A: 12.7 ± 0.2 pmol/mg protein/min

Q: What about the “Testosterone 6β-OHT Production” value ([8]; 0.33 µM) of the same compound?
A: 1816 ± 12 pmol/mg protein/min

Q: What about the “Testosterone 6β-OHT Production” value ([8]; 1 µM) of the same compound?
A: 1851 ± 14 pmol/mg protein/min

Q: What about the “Testosterone 6β-OHT Production” value ([8]; 3.3 µM) of the same compound?
A: 1810 ± 3 pmol/mg protein/min

Q: And the “Testosterone 6β-OHT Production” value ([8]; 10 µM)?
A: 1819 ± 4 pmol/mg protein/min

Q: What about the “Testosterone 6β-OHT Production” value ([8]; 33.3 µM) of the same compound?
A: 1816 ± 6 pmol/mg protein/min

Q: And the inhibition at 20 min, 0.33 μM [9]?
A: 3%

Q: And the inhibition at 20 min, 1 μM [9]?
A: 1%

Q: What about the inhibition at 20 min, 3.3 μM [9] of the same compound?
A: 3%

Q: What about the inhibition at 20 min, 10 μM [9] of the same compound?
A: 1%

Q: What about the inhibition at 20 min, 33.3 μM [9] of the same compound?
A: 3%

Q: And the “Chlorzoxazone 6-OH CZX Production” value ([10]; 0.33 μM)?
A: 238 ± 4 pmol/mg protein/min

Q: What about the “Chlorzoxazone 6-OH CZX Production” value ([10]; 1 μM) of the same compound?
A: 244 ± 1 pmol/mg protein/min

Q: And the “Chlorzoxazone 6-OH CZX Production” value ([10]; 3.3 μM)?
A: 239 ± 4 pmol/mg protein/min

Q: And the “Chlorzoxazone 6-OH CZX Production” value ([10]; 10 μM)?
A: 244 ± 6 pmol/mg protein/min

Q: What about the “Chlorzoxazone 6-OH CZX Production” value ([10]; 33.3 μM) of the same compound?
A: 239 ± 4 pmol/mg protein/min

Q: What about the inhibition at 30 min, 0.33 μM ([11]; both sexes, human, pooled human hepatic microsomes, probe S-mephenytoin 50 μM, test article 0.33 μM) of the same compound?
A: 4%

Q: What about the inhibition at 30 min, 1 μM ([11]; both sexes, human, pooled human hepatic microsomes, probe S-mephenytoin 50 μM, test article 1.0 μM) of the same compound?
A: 5%

Q: And the inhibition at 30 min, 3.3 μM ([11]; both sexes, human, pooled human hepatic microsomes, probe S-mephenytoin 50 μM, test article 3.3 μM)?
A: 15%

Q: And the inhibition at 30 min, 10 μM ([11]; both sexes, human, pooled human hepatic microsomes, probe S-mephenytoin 50 μM, test article 10 μM)?
A: 23%

Q: What about the inhibition at 30 min, 33.3 μM ([11]; both sexes, human, pooled human hepatic microsomes, probe S-mephenytoin 50 μM, test article 33.3 μM) of the same compound?
A: 43%

Q: What about the IC50 ([11]; human hepatic microsomes 1 mg/mL, 50 μM S-mephenytoin, 30 minutes, read-out: IC50, 4-hydroxymephenytoin production (CYP2C19)) of the same compound?
A: > 33.3 µM

Q: And the concentration at 96 h ([12]; male, SD, rat, plasma, oral, 50 mg/kg, individual rats 8, 11)?
A: 31.1 µg/mL

Q: And the concentration at 120 h ([12]; male, SD, rat, plasma, oral, 50 mg/kg, rat 8)?
A: 20.3 µg/mL

Q: And the “plasma concentration at 0 hour” value ([12]; individual rats 8, 9, 11)?
A: BQL (BQL = Below Quantifiable Limit < 1.00 μg/mL)

Q: And the “plasma concentration at 1 hour” value ([12]; individual rats 8, 9, 11)?
A: 81.2 µg/mL and 23.7 µg/mL and 61.0 µg/mL

Q: And the “plasma concentration at 2 hours” value ([12]; individual rats 8, 9, 11)?
A: 100.1 µg/mL and 30.4 µg/mL and 87.8 µg/mL

Q: What about the “plasma concentration at 4 hours” value ([12]; individual rats 8, 9, 11) of the same compound?
A: 122.3 µg/mL and 36.9 µg/mL and 94.5 µg/mL

Q: What about the “plasma concentration at 6 hours” value ([12]; individual rats 8, 9, 11) of the same compound?
A: 128.3 µg/mL and 56.5 µg/mL and 116.3 µg/mL

Q: And the “plasma concentration at 8 hours” value ([12]; individual rats 8, 9, 11)?
A: 128.2 µg/mL and 79.0 µg/mL and 127.8 µg/mL

Q: What about the “plasma concentration at 12 hours” value ([12]; individual rats 8, 9, 11) of the same compound?
A: 135.3 µg/mL and 80.6 µg/mL and 104.8 µg/mL

Q: What about the “plasma concentration at 24 hours” value ([12]; individual rats 8, 9, 11) of the same compound?
A: 82.5 µg/mL and 73.1 µg/mL and 66.5 µg/mL

Q: What about the “plasma concentration at 48 hours” value ([12]; individual rats 8, 9, 11) of the same compound?
A: 56.2 µg/mL and 44.5 µg/mL and 47.1 µg/mL

Q: What about the “plasma concentration at 72 hours” value ([12]; individual rats 8, 9, 11) of the same compound?
A: 39.7 µg/mL and 37.4 µg/mL and 30.8 µg/mL

Q: And the “plasma concentration at 96 hours” value ([12]; individual rats 8, 11)?
A: 24.6 µg/mL
